Assay results taken from patent publication US11098062B2, “Monocyclic and bicyclic ring system substituted carbanucleoside analogues for use as PRMT5 inhibitors” (Janssen Pharmaceutica NV, priority 2016, dated 2021).

biological target: T1, PRMT5-MEP50 enzyme (Homo sapiens, UniProt O14744); assay: In vitro assay 1b: PRMT5-MEP50 high throughput mass spectrometer assay (SAH formation), 1.25 nM enzyme; format: biochemical; conditions: 1.25 nM enzyme, 1 μM SAM, 0.3 μM H2A, 30° C., 120 min; averaged values; read-out: pIC50 Assay 1b (converted)
T1 construct: One virus expresses full length human PRMT5 with Flag-tag at N-terminus; Flag (N); purchased Charles River (Argenta); host or cells: insect cells (Sf9), baculovirus co-infection
T1 sequence (O14744 whole entry): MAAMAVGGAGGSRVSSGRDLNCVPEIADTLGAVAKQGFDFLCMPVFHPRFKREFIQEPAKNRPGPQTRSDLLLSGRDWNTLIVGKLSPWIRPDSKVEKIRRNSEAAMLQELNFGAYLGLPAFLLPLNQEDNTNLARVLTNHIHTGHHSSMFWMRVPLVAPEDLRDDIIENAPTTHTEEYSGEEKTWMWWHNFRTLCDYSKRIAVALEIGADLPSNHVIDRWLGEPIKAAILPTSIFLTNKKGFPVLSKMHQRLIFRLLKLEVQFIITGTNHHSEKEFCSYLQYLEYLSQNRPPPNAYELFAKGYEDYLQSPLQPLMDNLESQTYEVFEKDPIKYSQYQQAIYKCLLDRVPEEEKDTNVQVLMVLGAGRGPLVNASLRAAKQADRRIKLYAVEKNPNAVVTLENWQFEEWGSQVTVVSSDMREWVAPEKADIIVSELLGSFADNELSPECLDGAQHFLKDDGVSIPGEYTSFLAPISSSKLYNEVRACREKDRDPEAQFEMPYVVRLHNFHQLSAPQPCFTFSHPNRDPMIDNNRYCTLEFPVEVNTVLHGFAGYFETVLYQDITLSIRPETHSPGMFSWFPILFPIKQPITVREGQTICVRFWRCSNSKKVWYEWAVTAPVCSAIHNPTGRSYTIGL
T1 sequence (Q9BQA1 whole entry partner): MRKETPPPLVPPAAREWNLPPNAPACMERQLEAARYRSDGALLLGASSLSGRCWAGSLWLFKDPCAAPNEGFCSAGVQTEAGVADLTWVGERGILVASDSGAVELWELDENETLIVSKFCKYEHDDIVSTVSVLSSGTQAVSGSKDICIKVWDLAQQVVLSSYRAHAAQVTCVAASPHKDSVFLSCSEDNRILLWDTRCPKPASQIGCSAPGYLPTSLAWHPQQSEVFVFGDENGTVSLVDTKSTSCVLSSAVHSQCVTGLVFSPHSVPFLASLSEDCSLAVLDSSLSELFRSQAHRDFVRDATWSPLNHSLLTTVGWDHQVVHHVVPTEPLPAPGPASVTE
Text: (§1) Experimental Procedures In Vitro Assay (Assay 1a and 1b)
(§2) PRMT5-MEP50 enzyme was purchased from Charles River (Argenta). The enzyme complex was produced in insect cells (Sf9) infected simultaneously with two baculoviruses. One virus expresses full length human PRMT5 with Flag-tag at N-terminus, the second virus expresses full length MEP50 with His6-TEV cleavage at N-terminus. The protein was affinity purified using anti-Flag (M2) beads eluted with 3×FLAG peptide, followed by His-Select eluted with 0.5M imidazole. Eluted protein was then dialysed against tris-buffered saline (TBS) (pH 8.0) containing 20% glycerol and 3 mM dithiothreitol (DTT).
(§3) Full-length untagged human recombinant histone H2A (residues 1-130, Genbank Accession #NM_021052, MW=14.1 kDa) expressed in E. coli was purchased from Reaction Biology Corporation, Cat #HMT-11-146. Reagents used for making reaction buffer or stopping reaction were purchased including Tris base (Sigma Cat #T-1503), NaCl (Sigma Cat #RGF-3270), MgCl2 (Sigma Cat #M0250), DTT (Invitrogen Cat #15508-013) and Formic Acid (Riedel deHaen, Cat #33015)
(§4) PRMT5 catalyzes the sequential methylations of the terminal nitrogen atoms on the guanidine groups of arginine residues within proteins using co-substrate S-adenosyl-L-methionine (AdoMet, SAM), forming mono-methyl (MMA), syrmmetric-dimethyl arginine (sDMA) and S-adenosyl-L-homocysteine (AdoHcy, SAH). The enzyme activity was determined by following the product SAH formation using high throughput mass spectrometry (Agilent Rapidfire 300 System coupled to a Sciex 4000 series QTrap® triple-quad MS/MS). The reaction buffer was 20 mM Tris-HCl, pH 8.5, 50 mM NaCl, 5 mM MgCl2 and 1 mM DTT. The reaction activity was stopped using 1% formic acid (final concentration).
(§5) The IC50 Studies were performed using eleven point dosing series made for each compound by serially diluted 1:2 in dimethyl sulfoxide (DMSO), with point 12 being a DMSO control. Compounds were first spotted to plates, and followed by addition of 2 μM SAM and 0.6 μM H2A (histone H2A) solution mixture. The same volume of enzyme solution was added to initiate the enzymatic reactions. The final concentrations of the reaction are at 1 μM SAM, 0.3 μM H2A and 10 nM enzyme (assay 1a) or or 1.25 nM enzyme (assay 1b). The reaction was incubated at 30° C. for 60 minutes (min) when 10 nM enzyme was used and for 120 min when 1.25 nM enzyme was used. Subsequently, the reaction was quenched by addition of formic acid to a final concentration of 1%. The inhibitions of SAH formation in the presence of compounds were calculated as a percentage of the control relative to the uninhibited reaction as a function of inhibitor concentration. The data were fit as follows: Y=Bottom+(Top−Bottom)/(1+10^((log IC50−X)*h))
(§6) where IC50 is the inhibitor concentration (same unit as X) at 50% inhibition and h is the Hill slope. Y is percent of inhibition, X is log of compound concentration. Bottom and Top are the plateaus in same units as Y.

Row | IC50 [nM] | Structure (SMILES)
1 | 63.1 | Nc1ccc(/C=C/[C@H]2C[C@@H](n3ccc4c(N)ncnc43)[C@H](O)[C@@H]2O)cn1 [Compound 30]

tested on: MCL xenograft models; assay: not given; conditions: multiple MCL xenograft models; cited from earlier work

Row | Structure (SMILES) | anti-tumour activity
2 | O=C(NC[C@H](O)CN1CCc2ccccc2C1)c1cc(NC2COC2)ncn1 [EPZ015666] | anti-tumour activity in multiple MCL xenograft models

biological target: PRMT5 (Homo sapiens, UniProt O14744); assay: not given; conditions: background statement; cited from earlier work
Sequence (O14744 whole entry, species assumed): as the sequence (O14744 whole entry) above
Sequence (Q9BQA1 whole entry partner, species assumed): as the sequence (Q9BQA1 whole entry partner) above

Row | Structure (SMILES) | PRMT5 inhibitor potency
3 | O=C(NC[C@H](O)CN1CCc2ccccc2C1)c1cc(NC2COC2)ncn1 [EPZ015666] | sub-nanomolar potent

biological target: T1, PRMT5-MEP50 enzyme; assay: In vitro assay 1a: PRMT5-MEP50 high throughput mass spectrometer assay (SAH formation), 10 nM enzyme; format: biochemical; conditions: 1 μM SAM, 0.3 μM H2A, 30° C., 60 min, averaged values, read-out: pIC50 Assay 1a (converted)
Text: as §1, §2, §3, §4, §5, §6

Row | Structure (SMILES) | IC50 [nM]
4 | Cc1cnc2cc(CC[C@H]3C[C@@H](n4ccc5c(N)ncnc54)[C@H](O)[C@@H]3O)ccn12 [Compound 1] | 0.794
5 | Nc1nc2cc(CC[C@H]3C[C@@H](n4ccc5c(Cl)ncnc54)[C@H](O)[C@@H]3O)ccc2s1 [Compound 5] | 12.6
6 | Nc1ncnc2c1ccn2[C@@H]1C[C@H](COc2ccn3ccnc3c2)[C@@H](O)[C@H]1O [Compound 24] | 31.6
7 | Cn1cnc2cc(OC[C@H]3C[C@@H](n4ccc5c(N)ncnc54)[C@H](O)[C@@H]3O)ccc21 [Compound 25] | 126

Other lines, results leading:

Row | IC50 [nM] | Structure (SMILES)
8 | 2 | Nc1ncnc2c1ccn2[C@@H]1C[C@H](CCc2ccn3ccnc3c2)[C@@H](O)[C@H]1O [Compound 3]
9 | 12.6 | Cn1cnc2cc(CC[C@H]3C[C@@H](n4ccc5c(N)ncnc54)[C@H](O)[C@@H]3O)ccc21 [Compound 4]
10 | 2 | Nc1nc2cc(CC[C@H]3C[C@@H](n4ccc5c(N)ncnc54)[C@H](O)[C@@H]3O)ccc2s1 [Compound 6]
11 | 6.31 | CNc1nc2cc(CC[C@H]3C[C@@H](n4ccc5c(N)ncnc54)[C@H](O)[C@@H]3O)ccc2s1 [Compound 7]
12 | 39.8 | Nc1ncnc2c1ccn2[C@@H]1C[C@H](CCc2cc3ncccc3[nH]2)[C@@H](O)[C@H]1O [Compound 17]
13 | 39.8 | Nc1ncnc2c1ccn2[C@@H]1C[C@H](CCc2cc3ncccc3s2)[C@@H](O)[C@H]1O [Compound 18]
14 | 1260 | Nc1ncnc2c1ccn2[C@@H]1C[C@H](CCc2cc3ncccc3o2)[C@@H](O)[C@H]1O [Compound 19]

tested on: nuclear symmetric Arginine dimethylation in A549 cells; assay: PD assay (assay 2): inhibition of nuclear symmetric Arginine dimethylation (SYM10 immunostaining) in A549 cells; format: cell-based; conditions: Homo sapiens, 48 h incubation, SYM10 antibody, averaged values, read-out: pIC50 Assay 2 (converted)
Protocol: Experimental Procedure PD Assay (Assay 2)
A549 cells (ATCC, Cat #CCL-185) were cultured in Dulbecco's Modified Eagle's Medium (DMEM) (Sigma, Cat #D5796), supplemented with 10% Fetal Calf Serum (FCS) (HyClone™, Cat #SV30160.03), 100 mM Sodium Pyruvate (Sigma, Cat #S8636), 200 mM L-Glutamine (Sigma, Cat #G7513) and 50 mg/mL Gentamycing (Gibco, Cat #15750-037).
Reagents used for buffers were purchased: Dulbecco's phosphate buffered saline (DPBS) without Ca/Mg (Sigma, Cat #D8537), phosphate buffered saline (PBS) 10× (Roche, Cat #11 666 789 001), Formalin solution 10% (Sigma, HT50-1-128-4L), Methanol 100% (Sigma, Cat #32213-2.5L), Triton X-100 (Acros, Cat #215680010), Bovine Serum Albumin (BSA) (Sigma, Cat #A2153), Alexa fluor 488 goat anti-rabbit antibody (Life Technologies, Cat #A11034), HCS CellMask Deep Red Stain (Life Technologies, Cat #H32721), Hoechst Stain (Life Technologies, Cat #33258), Anti-dimethyl-Arginine, sym (SYM10) antibody (Millipore, 07-412).
Cells were plated at 400 cells/40 μL/well in 384 well black μplates clear bottom (Perkin Elmer) and overnight incubated at 37° C., 5% CO2. The IC50 Studies were performed using nine point dosing series ranging from 10 μM to […] for each compound. 80 nL of the respective dilution of the compounds was added using the Labcyte POD 810 (Labcyte) reaching a final DMSO concentration of 0.2% in cell culture. After an incubation period of 48 h at 37° C. and 5% CO2, cells were fixed in 10% formalin solution for 15 min at room temperature and 20 min in ice-cold methanol, after which they were washed 3× in DPBS. Subsequently, the cells were blocked for 1 h in blocking buffer (PBS+1% BSA and 0.5% Triton X-100) and incubated overnight at 4° C. with the SYM10 antibody diluted 1/2000 in blocking buffer. The cells were washed 3× with washing buffer (PBS+0.1% Triton X-100) and incubated with the Alexa fluor 488 goat anti-rabbit antibody diluted 1/200 in blocking buffer for 1 h at room temperature. Subsequently, they were washed 3× with washing buffer and incubated for 30 min at room temperature with PBS containing a 1/5000 dilution of Hoechst Stain and a 1/5000 dilution of the HCS CellMask Deep Red Stain. After a final wash with PBS, the plates were imaged using the 10×W lens of the Opera® system (Perkin Elmer Life Sciences) using following settings (values in nm):
Low control: minimum level of symmetrically dimethylated Arginines (cells treated with reference compound at 10 μM).
High control: maximum level of symmetrically dimethylated Arginines (DMSO treated cells).
IC50 and pIC50 (−log IC50) values were calculated using the appropriate software.
The pIC50 values in the Table below are averaged values (Co. No. means compound number; n.d. means not determined).

Row | Structure (SMILES) | IC50 [nM]
15 | Cc1cnc2cc(CC[C@H]3C[C@@H](n4ccc5c(N)ncnc54)[C@H](O)[C@@H]3O)ccn12 [Compound 1] | 1.26
16 | Nc1nc2cc(CC[C@H]3C[C@@H](n4ccc5c(Cl)ncnc54)[C@H](O)[C@@H]3O)ccc2s1 [Compound 5] | 3980
17 | Nc1ncnc2c1ccn2[C@@H]1C[C@H](COc2ccn3ccnc3c2)[C@@H](O)[C@H]1O [Compound 24] | 1580
18 | Cn1cnc2cc(OC[C@H]3C[C@@H](n4ccc5c(N)ncnc54)[C@H](O)[C@@H]3O)ccc21 [Compound 25] | 2000
19 | Nc1ccc(/C=C/[C@H]2C[C@@H](n3ccc4c(N)ncnc43)[C@H](O)[C@@H]2O)cn1 [Compound 30] | 501

The next lines start with the values.

Row | IC50 [nM] | Structure (SMILES)
20 | 20 | Nc1ncnc2c1ccn2[C@@H]1C[C@H](CCc2ccn3ccnc3c2)[C@@H](O)[C@H]1O [Compound 3]
21 | 31.6 | Cn1cnc2cc(CC[C@H]3C[C@@H](n4ccc5c(N)ncnc54)[C@H](O)[C@@H]3O)ccc21 [Compound 4]
22 | 15.8 | Nc1nc2cc(CC[C@H]3C[C@@H](n4ccc5c(N)ncnc54)[C@H](O)[C@@H]3O)ccc2s1 [Compound 6]
23 | 25.1 | CNc1nc2cc(CC[C@H]3C[C@@H](n4ccc5c(N)ncnc54)[C@H](O)[C@@H]3O)ccc2s1 [Compound 7]
24 | 1000 | Nc1ncnc2c1ccn2[C@@H]1C[C@H](CCc2cc3ncccc3[nH]2)[C@@H](O)[C@H]1O [Compound 17]
25 | 126 | Nc1ncnc2c1ccn2[C@@H]1C[C@H](CCc2cc3ncccc3s2)[C@@H](O)[C@H]1O [Compound 18]
26 | 5010 | Nc1ncnc2c1ccn2[C@@H]1C[C@H](CCc2cc3ncccc3o2)[C@@H](O)[C@H]1O [Compound 19]
